Consider one compound from patent US6168798A, “Non-irritating composition for treating acne and other skin conditions” (Bristol-Myers Squibb Company, priority 1997, dated 2001).

This series relates to isolated bovine corneas.

Description: The bovine corneal opacity and permeability assay (BCOP) was used to assess the ocular irritancy of test formulations to isolated bovine corneas. Bovine corneas, obtained as a by-product from freshly slaughtered animals, were mounted in special holders and exposed to the test formulations. An in vitro score was determined for each test material based on the induction of opacity and permeability to fluorescein in the isolated bovine corneas. In these experiments, the potential ocular irritancy of the composition formulated in accordance with the invention and exemplified in Table 1 was compared with that of the commercially-available comparative product. Ocular irritancy was measured by changes in opacity and permeability to fluorescein in isolated bovine corneas. Five corneas were treated with each test material. Based on changes in corneal opacity and permeability relative to control corneas, an in vitro score was determined. […]
After a minimum of one hour of incubation, the corneal holders with the corneas in place were removed from the incubator and the medium was removed from both compartments and replaced with fresh medium. The opacity was determined for each cornea using a Spectro Design OP-KIT opacitometer. Three corneas whose opacity readings were close to the median opacity for all of the corneas were selected as the negative control corneas. […]

`CCO` [ethanol (95%), ethanol]: the “Irritation potential rating from in vitro score” value is “moderate to severe”.
